Where two headings read alike, the source gives them in different places.
Tests used:
Experiment in all cases: F420H2 oxidation followed at […] nm, anaerobic
Type in all cases: biochemical
[1] = target: T1, jMer (F420-dependent methylene-H4MPT reductase from Methanocaldococcus jannaschii) (Methanocaldococcus jannaschii, UniProt Q58929, D96N, form not given); conditions: 20 μM F420H2, 100 mM Tris/HCl pH 8.0, 55°C; read-out: App. K m
T1 construct: gene mer; pT7-7_jMer in E. coli ArcticExpress (DE3); no tag mentioned; heat step and column purification; homodimer ~80 kDa
T1 sequence (Q58929 whole entry D96N, form open): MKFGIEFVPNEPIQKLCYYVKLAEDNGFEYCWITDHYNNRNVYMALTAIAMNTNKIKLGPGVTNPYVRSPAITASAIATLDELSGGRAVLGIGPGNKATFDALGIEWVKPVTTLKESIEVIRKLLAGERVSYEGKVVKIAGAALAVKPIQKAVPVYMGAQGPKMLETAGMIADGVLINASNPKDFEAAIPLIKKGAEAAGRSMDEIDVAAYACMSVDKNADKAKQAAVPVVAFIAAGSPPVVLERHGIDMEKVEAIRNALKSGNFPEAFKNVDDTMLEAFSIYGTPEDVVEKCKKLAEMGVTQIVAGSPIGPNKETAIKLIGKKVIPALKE

[2] = target: T2, jMer (F420-dependent methylene-H4MPT reductase from Methanocaldococcus jannaschii) (Methanocaldococcus jannaschii, UniProt Q58929); conditions: 20 μM F420H2, 100 mM Tris/HCl pH 8.0, 55°C; read-out: App. K m
T2 construct: gene mer; pT7-7_jMer in E. coli ArcticExpress (DE3); no tag mentioned; heat step and column purification; homodimer ~80 kDa
T2 sequence (Q58929 whole entry): as the sequence (Q58929 whole entry D96N, form open) above, with N96D counted along it

[3] = target: T3, jMer (F420-dependent methylene-H4MPT reductase from Methanocaldococcus jannaschii) (Methanocaldococcus jannaschii, UniProt Q58929, E6Q, form not given); conditions: 20 μM F420H2, 100 mM Tris/HCl pH 8.0, 55°C; read-out: App. K m
T3 construct: gene mer; pT7-7_jMer in E. coli ArcticExpress (DE3); no tag mentioned; heat step and column purification; homodimer ~80 kDa
T3 sequence (Q58929 whole entry E6Q, form open): as the sequence (Q58929 whole entry D96N, form open) above, with E6Q, N96D counted along it

[4] = target: T2, jMer (F420-dependent methylene-H4MPT reductase from Methanocaldococcus jannaschii); conditions: 20 μM F420H2, 100 mM Tris/HCl pH 8.0, 55°C; methylene-H4MPT made in situ from H4MPT and 15 mM formaldehyde; read-out: App. K m

Km [1]: 140 ± 30 µM
Km [2]: 20 ± 5 µM
Km [3]: 34 ± 10 µM
Km [4]: 58 ± 29.7 µM
Structure (SMILES): C[C@@H]1Nc2nc(N)[nH]c(=O)c2N2CN(c3ccc(C[C@H](O)[C@H](O)[C@H](O)CO[C@H]4O[C@H](COP(=O)(O)O[C@@H](CCC(=O)O)C(=O)O)[C@@H](O)[C@H]4O)cc3)[C@H](C)[C@@H]12 [Methylene‐H4MPT]
